Several values for one entry are separate records, joined by “and”; a condition that tells them apart may be missing. Equal values may be shown once.
Test system: Rattus norvegicus
Experiment: Anti-inflammatory activity in Wistar rat assessed as inhibition of carrageenan-induced paw edema at 10 mg/kg, ip pretreated for 1 hr followed by carrageenan challenge and measured after 4 hr relative to control (reference value: 0.00 +/-0.4 %)
Type: functional
Details: time 5 hrs

| SMILES | inhibition in vivo at 10 mg/kg [%] |
| --- | --- |
| COc1cc(/C=C/C(=O)/C=C(O)/C=C/c2ccc(OC(=O)[C@H](N)CCSC)c(OC)c2)ccc1OC(=O)[C@H](N)CCSC.Cl.Cl | 98 |

Test system: Mus musculus
Experiment: Analgesic activity in albino mouse assessed reduction in acetic acid-induced abdominal writhing by measuring writing reflex at 10 mg/kg, ip pretreated for 1 hr followed by acetic acid challenge and measured starting 5 mins post acetic acid challenge for 10 mins (reference value: 42.4 +/- 1.02)
Type: functional
Details: time 75 min, 1.25 h

| SMILES | Activity |
| --- | --- |
| COc1cc(/C=C/C(=O)/C=C(O)/C=C/c2ccc(OC(=O)[C@H](N)CCSC)c(OC)c2)ccc1OC(=O)[C@H](N)CCSC.Cl.Cl | 19.8 |

Test system: Splenocyte
Experiment: Immunomodulatory activity in Swiss albino mouse splenocytes assessed as cell viability at 10 uM by measuring stimulation index incubated for 72 hrs in presence of mitogenic stimulus phytohaemagglutinin by MTT assay (reference value: 1.00 +/- 0.24)
Type: functional
Details: not given

| SMILES | Activity_index |
| --- | --- |
| COc1cc(/C=C/C(=O)/C=C(O)/C=C/c2ccc(OC(=O)[C@H](N)CCSC)c(OC)c2)ccc1OC(=O)[C@H](N)CCSC.Cl.Cl | 1.01 |

Test system: Rattus norvegicus
Experiment: Anti-inflammatory activity in Wistar rat assessed as inhibition of carrageenan-induced paw edema at 10 mg/kg, ip pretreated for 1 hr followed by carrageenan challenge and measured after 24 hr relative to control (reference value: 0.00 +/-0.3 %)
Type: functional
Details: time 25 hrs

| SMILES | inhibition in vivo at 10 mg/kg [%] |
| --- | --- |
| COc1cc(/C=C/C(=O)/C=C(O)/C=C/c2ccc(OC(=O)[C@H](N)CCSC)c(OC)c2)ccc1OC(=O)[C@H](N)CCSC.Cl.Cl | 35 |

Test system: Salmonella typhimurium
Experiment: Antibacterial activity against Salmonella typhimurium ATCC 19430 incubated for 18 hrs by agar dilution assay
Type: functional, Salmonella enterica subsp. enterica serovar Typhimurium
Details: Salmonella enterica

| MIC | SMILES |
| --- | --- |
| 0.25 µg/mL and 0.355 µM | COc1cc(/C=C/C(=O)/C=C(O)/C=C/c2ccc(OC(=O)[C@H](N)CCSC)c(OC)c2)ccc1OC(=O)[C@H](N)CCSC.Cl.Cl |

Test system: Rattus norvegicus
Experiment: Antiinflammatory activity in Wistar rat model of carrageenan-induced paw edema assessed as reduction in thickness of paw edema at 10 mg/kg, ip pretreated for 1 hr followed by carrageenan challenge and measured after 24 hrs (reference value: 0.83 +/-0.08 mm)
Type: functional
Details: time 25 hrs

| SMILES | Activity [mm] |
| --- | --- |
| COc1cc(/C=C/C(=O)/C=C(O)/C=C/c2ccc(OC(=O)[C@H](N)CCSC)c(OC)c2)ccc1OC(=O)[C@H](N)CCSC.Cl.Cl | 0.54 |

Test system: Rattus norvegicus
Experiment: Anti-inflammatory activity in Wistar rat assessed as inhibition of carrageenan-induced paw edema at 10 mg/kg, ip pretreated for 1 hr followed by carrageenan challenge and measured after 2 hr relative to control (reference value: 0.00 +/-0.03 %)
Type: functional
Details: time 3 hrs

| SMILES | inhibition in vivo at 10 mg/kg [%] |
| --- | --- |
| COc1cc(/C=C/C(=O)/C=C(O)/C=C/c2ccc(OC(=O)[C@H](N)CCSC)c(OC)c2)ccc1OC(=O)[C@H](N)CCSC.Cl.Cl | 54 |

Test system: Mus musculus
Experiment: Analgesic activity in albino mouse assessed protection against acetic acid-induced abdominal writhing at 10 mg/kg, ip pretreated for 1 hr followed by acetic acid challenge and measured starting 5 mins post acetic acid challenge for 10 mins relative to control (reference value: 0 %)
Type: functional
Details: time 75 min, 1.25 h

| SMILES | Activity [%] |
| --- | --- |
| COc1cc(/C=C/C(=O)/C=C(O)/C=C/c2ccc(OC(=O)[C@H](N)CCSC)c(OC)c2)ccc1OC(=O)[C@H](N)CCSC.Cl.Cl | 53.3 |

Test system: Mus musculus
Experiment: Analgesic activity in albino mouse assessed as forepaw licking/jumping latency time at 10 mg/kg, ip measured after 90 mins by hot plate test (reference value: 2.72 +/- 0.01 sec)
Type: functional
Details: 1.5 h

| SMILES | Time [s] |
| --- | --- |
| COc1cc(/C=C/C(=O)/C=C(O)/C=C/c2ccc(OC(=O)[C@H](N)CCSC)c(OC)c2)ccc1OC(=O)[C@H](N)CCSC.Cl.Cl | 3.36 |

Test system: Mus musculus
Experiment: Analgesic activity in albino mouse assessed protection against acetic acid-induced abdominal writhing at 10 mg/kg, ip pretreated for 1 hr followed by acetic acid challenge and measured starting 5 mins post acetic acid challenge for 10 mins relative to indomethacin
Type: functional
Details: time 75 min, 1.25 h

| SMILES | Activity [%] |
| --- | --- |
| COc1cc(/C=C/C(=O)/C=C(O)/C=C/c2ccc(OC(=O)[C@H](N)CCSC)c(OC)c2)ccc1OC(=O)[C@H](N)CCSC.Cl.Cl | 86.5 |

Test system: Mus musculus
Experiment: Analgesic activity in albino mouse assessed as forepaw licking/jumping latency time at 10 mg/kg, ip measured after 30 mins by hot plate test (reference value: 5.02 +/- 0.09 sec)
Type: functional
Details: 0.5 h

| SMILES | Time [s] |
| --- | --- |
| COc1cc(/C=C/C(=O)/C=C(O)/C=C/c2ccc(OC(=O)[C@H](N)CCSC)c(OC)c2)ccc1OC(=O)[C@H](N)CCSC.Cl.Cl | 5.36 |

Test system: Rattus norvegicus
Experiment: Antiinflammatory activity in Wistar rat model of carrageenan-induced paw edema assessed as reduction in thickness of paw edema at 10 mg/kg, ip pretreated for 1 hr followed by carrageenan challenge and measured after 2 hrs (reference value: 2.06 +/-0.09 mm)
Type: functional
Details: time 3 hrs

| SMILES | Activity [mm] |
| --- | --- |
| COc1cc(/C=C/C(=O)/C=C(O)/C=C/c2ccc(OC(=O)[C@H](N)CCSC)c(OC)c2)ccc1OC(=O)[C@H](N)CCSC.Cl.Cl | 0.95 |

Test system: Streptococcus pyogenes
Experiment: Antibacterial activity against Streptococcus pyogenes ATCC 19615 incubated for 18 hrs by agar dilution method
Type: functional
Details: not given

| MIC | SMILES |
| --- | --- |
| 0.25 µg/mL and 0.355 µM | COc1cc(/C=C/C(=O)/C=C(O)/C=C/c2ccc(OC(=O)[C@H](N)CCSC)c(OC)c2)ccc1OC(=O)[C@H](N)CCSC.Cl.Cl |

Test system: Mus musculus
Experiment: Analgesic activity in albino mouse assessed as protection at 10 mg/kg, ip measured after 90 mins by hot plate test (reference value: 0 %)
Type: functional
Details: 1.5 h

| SMILES | Activity [%] |
| --- | --- |
| COc1cc(/C=C/C(=O)/C=C(O)/C=C/c2ccc(OC(=O)[C@H](N)CCSC)c(OC)c2)ccc1OC(=O)[C@H](N)CCSC.Cl.Cl | 23.5 |

Test system: Staphylococcus aureus
Experiment: Antibacterial activity against Staphylococcus aureus ATCC 25923 incubated for 18 hrs by agar dilution method
Type: functional
Details: not given

| MIC | SMILES |
| --- | --- |
| 0.125 µg/mL and 0.178 µM | COc1cc(/C=C/C(=O)/C=C(O)/C=C/c2ccc(OC(=O)[C@H](N)CCSC)c(OC)c2)ccc1OC(=O)[C@H](N)CCSC.Cl.Cl |

Test system: MCF7
Experiment: Antiproliferative activity against human MCF7 cells assessed as inhibition of cell growth after 72 hrs by MTT assay
Type: functional, cell-based
Details: MCF7, 72 h

| IC50 [µM] | SMILES |
| --- | --- |
| 10.2 | COc1cc(/C=C/C(=O)/C=C(O)/C=C/c2ccc(OC(=O)[C@H](N)CCSC)c(OC)c2)ccc1OC(=O)[C@H](N)CCSC.Cl.Cl |

Test system: A549
Experiment: Antiproliferative activity against human A549 cells assessed as inhibition of cell growth after 72 hrs by MTT assay
Type: functional, cell-based
Details: A549, 72 h

| IC50 [µM] | SMILES |
| --- | --- |
| 20 | COc1cc(/C=C/C(=O)/C=C(O)/C=C/c2ccc(OC(=O)[C@H](N)CCSC)c(OC)c2)ccc1OC(=O)[C@H](N)CCSC.Cl.Cl |

Test system: not listed separately
Experiment: Ulcerogenic activity in fasted albino mouse assessed as average severity of ulcers in gastric mucosa at 10 mg/kg, po for 3 days (reference value: 0)
Type: toxicity, organism-based
Details: in vivo, 72 h, time 3 day

| SMILES | Activity |
| --- | --- |
| COc1cc(/C=C/C(=O)/C=C(O)/C=C/c2ccc(OC(=O)[C@H](N)CCSC)c(OC)c2)ccc1OC(=O)[C@H](N)CCSC.Cl.Cl | 0 |

Test system: Rattus norvegicus
Experiment: Antiinflammatory activity in Wistar rat model of carrageenan-induced paw edema assessed as reduction in thickness of paw edema at 10 mg/kg, ip pretreated for 1 hr followed by carrageenan challenge and measured after 4 hrs (reference value: 1.40 +/-0.10 mm)
Type: functional
Details: time 5 hrs

| SMILES | Activity [mm] |
| --- | --- |
| COc1cc(/C=C/C(=O)/C=C(O)/C=C/c2ccc(OC(=O)[C@H](N)CCSC)c(OC)c2)ccc1OC(=O)[C@H](N)CCSC.Cl.Cl | 0.03 |

Test system: PC-3
Experiment: Antiproliferative activity against human PC3 cells assessed as inhibition of cell growth after 72 hrs by MTT assay
Type: functional, cell-based
Details: PC-3, 72 h

| IC50 [µM] | SMILES |
| --- | --- |
| 41.5 | COc1cc(/C=C/C(=O)/C=C(O)/C=C/c2ccc(OC(=O)[C@H](N)CCSC)c(OC)c2)ccc1OC(=O)[C@H](N)CCSC.Cl.Cl |

— ChEMBL document CHEMBL4765295, “Synthesis, pharmacological profile and 2D-QSAR studies of curcumin-amino acid conjugates as potential drug candidates” (Eur J Med Chem, 2020)
